Measured values: patent US8349828B2, “Azatricyclic antibiotic compounds” (Actelion Pharmaceuticals Ltd., priority 2008, dated 2013)

System: M. catarrhalis A894
Assay: MIC determination by microdilution in cation-adjusted Mueller-Hinton Broth (CLSI M7-A7)
Format: cell-based
Conditions: Moraxella catarrhalis, A894, microdilution method
Method: Minimal inhibitory concentrations (MICs, in mg/l) were determined in cation-adjusted Mueller-Hinton Broth by a microdilution method following the description given in “Methods for Dilution Antimicrobial Susceptibility Tests for Bacteria that Grow Aerobically”, Approved standard, 7th ed., Clinical and Laboratory Standards Institute (CLSI) Document M7-A7, Wayne, Pa., USA, 2006. All Example compounds were tested against several Gram-positive and Gram-negative bacteria.

| SMILES | MIC |
| --- | --- |
| O=C1CSc2ccc(N3C[C@H](CCNC[C@@H]4Cc5cccc6ncc(=O)n4c56)OC3=O)cc2N1 [Example 29, (S)-5-({2-[(S)-2-oxo-3-(3-oxo-3,4-dihydro-2H-benzo[1,4]thiazin-6-yl)-oxazolidin-5-yl]-ethylamino}-methyl)-5,6-dihydro-pyrrolo[1,2,3-de]quinoxalin-3-one] | ≤ 0.063 µg/mL |
| O=C1CSc2ccc(N3C[C@@H](CNCC4Cc5c(F)ccc6ccc(=O)n4c56)OC3=O)cc2N1 (mixture of isomers) [Example 9, (RS)-9-fluoro-2-({[(R)-2-oxo-3-(3-oxo-3,4-dihydro-2H-benzo[1,4]thiazin-6-yl)-oxazolidin-5-ylmethyl]-amino}-methyl)-1,2-dihydro-pyrrolo[3,2,1-ij]quinolin-4-one] | ≤ 0.063 µg/mL |
| O=C1CSc2ccc(N3C[C@H](CCNC[C@@H]4Cc5c(F)ccc6ccc(=O)n4c56)OC3=O)cc2N1 [Example 19, (S)-9-fluoro-2-({2-[(S)-2-oxo-3-(3-oxo-3,4-dihydro-2H-benzo[1,4]thiazin-6-yl)-oxazolidin-5-yl]-ethylamino}-methyl)-1,2-dihydropyrrolo[3,2,1-ij]quinolin-4-one] | ≤ 0.063 µg/mL |
| O=C1CSc2ccc(N3C[C@@H](CNCC4Cn5c(=O)ccc6cccc(c65)O4)OC3=O)cc2N1 (mixture of isomers) [Example 11, (RS)-2-({[(R)-2-oxo-3-(3-oxo-3,4-dihydro-2H-benzo[1,4]thiazin-6-yl)-oxazolidin-5-ylmethyl]-amino}-methyl)-2,3-dihydro-1-oxa-3a-aza-phenalen-4-one] | ≤ 0.063 µg/mL |

The remaining lines, values ahead:

| MIC | SMILES |
| --- | --- |
| ≤ 0.063 µg/mL | O=C1COc2ccc(N3C[C@@H](CNCC4Cc5c(F)cnc6ccc(=O)n(c56)C4)OC3=O)cc2N1 (mixture of isomers) [Example 14, (RS)-3-fluoro-5-({[(R)-2-oxo-3-(3-oxo-3,4-dihydro-2H-benzo[1,4]oxazin-6-yl)-oxazolidin-5-ylmethyl]-amino}-methyl)-5,6-dihydro-4H-1,6a-diaza-phenalen-7-one] |
| ≤ 0.063 µg/mL | O=C1COc2ccc(N3C[C@@H](CCNCC4Cc5cccc6ccc(=O)n4c56)OC3=O)cc2N1 (mixture of isomers) [Example 27, (RS)-2-({2-[(R)-2-oxo-3-(3-oxo-3,4-dihydro-2H-benzo[1,4]oxazin-6-yl)-oxazolidin-5-yl]-ethylamino}-methyl)-1,2-dihydro-pyrrolo[3,2,1-ij]quinolin-4-one] |
